Test results as given in patent US6740640B2, “Sulfofucosylacylglycerol derivatives and administration thereof as medicaments” (Toyo Suisan Kaisha, Ltd., priority 1999, dated 2004).
Where a name gives a salt, the structure may show the parent alone.

Experiments:
[1] = biological target: T1, DNA polymerase α (Bos taurus, UniProt A0AAA9TD94); experiment: Inhibitory effect against DNA polymerase α ([3H]-dTTP incorporation); type: biochemical; settings: DNA polymerase α from bovine thymus, 0.05 U, 37° C. for 60 minutes
T1 construct: from tissue; host or cells: bovine thymus
T1 sequence (A0AAA9TD94 1-1441): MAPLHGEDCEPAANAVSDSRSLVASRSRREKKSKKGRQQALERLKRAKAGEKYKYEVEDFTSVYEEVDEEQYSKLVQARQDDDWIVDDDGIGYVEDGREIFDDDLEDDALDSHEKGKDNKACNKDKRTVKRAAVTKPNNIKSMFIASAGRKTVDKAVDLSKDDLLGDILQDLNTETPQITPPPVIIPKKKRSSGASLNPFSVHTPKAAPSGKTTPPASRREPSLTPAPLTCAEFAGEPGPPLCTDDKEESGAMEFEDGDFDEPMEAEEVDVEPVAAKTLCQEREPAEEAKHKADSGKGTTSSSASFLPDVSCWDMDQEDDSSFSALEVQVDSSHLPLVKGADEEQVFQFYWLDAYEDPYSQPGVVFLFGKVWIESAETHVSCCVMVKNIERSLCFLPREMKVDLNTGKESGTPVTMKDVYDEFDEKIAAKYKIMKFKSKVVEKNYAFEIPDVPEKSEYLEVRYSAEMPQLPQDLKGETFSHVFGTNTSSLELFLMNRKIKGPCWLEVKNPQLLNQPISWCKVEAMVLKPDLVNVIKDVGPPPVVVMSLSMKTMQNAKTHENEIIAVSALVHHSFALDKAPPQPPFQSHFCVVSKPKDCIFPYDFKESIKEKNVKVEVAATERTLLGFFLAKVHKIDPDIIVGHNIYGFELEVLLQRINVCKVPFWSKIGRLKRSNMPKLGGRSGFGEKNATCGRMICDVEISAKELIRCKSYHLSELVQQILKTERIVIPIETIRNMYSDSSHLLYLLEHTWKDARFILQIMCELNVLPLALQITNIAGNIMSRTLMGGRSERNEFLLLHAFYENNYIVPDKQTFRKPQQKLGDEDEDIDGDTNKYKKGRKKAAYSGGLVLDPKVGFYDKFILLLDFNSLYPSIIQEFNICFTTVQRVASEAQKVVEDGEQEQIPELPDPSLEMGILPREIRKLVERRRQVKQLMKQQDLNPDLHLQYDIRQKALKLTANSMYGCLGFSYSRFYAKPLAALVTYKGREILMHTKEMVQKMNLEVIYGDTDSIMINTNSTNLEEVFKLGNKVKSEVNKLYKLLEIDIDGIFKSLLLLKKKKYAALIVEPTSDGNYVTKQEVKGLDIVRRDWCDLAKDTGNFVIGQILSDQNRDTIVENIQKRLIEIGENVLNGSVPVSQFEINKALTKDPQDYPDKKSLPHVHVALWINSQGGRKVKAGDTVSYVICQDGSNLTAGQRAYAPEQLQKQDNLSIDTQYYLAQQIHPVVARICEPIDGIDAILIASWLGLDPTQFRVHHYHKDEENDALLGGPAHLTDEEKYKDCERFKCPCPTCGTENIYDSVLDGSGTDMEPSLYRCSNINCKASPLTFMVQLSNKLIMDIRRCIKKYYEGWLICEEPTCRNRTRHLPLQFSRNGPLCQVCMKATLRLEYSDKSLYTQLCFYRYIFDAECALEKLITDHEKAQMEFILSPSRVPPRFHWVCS
Procedure: An assay on inhibitory effect against a DNA polymerase α was carried out in the following manner.
Each mixture was added with a buffer containing inorganic salts for the enzymatic reaction, [^3H]-labeled dTTP and compounds for reaction containing a template DNA strand, and incubated at 37° C. for 60 minutes.
After the enzymatic reaction was quenched, the resultant reaction product was fixed on a dedicated filter and subjected to measurement by a liquid scintillation counter. The amount of enzymatically incorporated dTTP was calculated as a radiation dose (cpm) of [^3H]. Note that, each of the sulfofucosylacylglycerol derivatives is a mixture of the S- and R-configurations with respect to an absolute configuration of the carbon of the 2-position of the glycerol moiety.
The results are shown as IC50 in Table 1 below.

[2] = test system: gastric cancer cells NUGC-3; experiment: Anticancer activity against cultured gastric cancer cells (MTT assay); type: cell-based; settings: Homo sapiens, NUGC-3, 48 hour cultivation
Procedure: (§1) Colon cancer cells DLD-1 were maintained and subcultured in RPMI 1640 medium (containing 10% calf serum). Each of the test compounds (SFAG1 to SFAG3 shown in Table 1) was suspended and diluted in the medium, and then the cancer cells were cultivated together with the medium in a 96-well plate at 3×10^3 cells/well. After 48 hour cultivation, the MTT assay (Mosmann, T: Journal of Immunological Method, 65, 55-63 (1983)) was carried out to compare survival rates.
An assay on anticancer activity against cultured gastric cancer cells was carried out in the same manner as in the Assay 2 except that gastric cancer cells NUGC-3 were used instead of the colon cancer cells DLD-1.
The results are shown as IC50 in Table 3 below.

[3] = test system: Colon cancer cells DLD-1; experiment: Anticancer activity against cultured colon cancer cells (MTT assay); type: cell-based; settings: Homo sapiens, DLD-1, 48 hour cultivation
Procedure: An assay on anticancer activity against cultured colon cancer cells was carried out in the following manner.
as §1
The results are shown as IC50 in Table 2 below.

SMILES	IC50 [1] [µM]	IC50 [2] [µg/mL]	IC50 [3] [µg/mL]
CCCCCCCCCCCCCCCC(=O)OCC(CO[C@H]1O[C@H](CS(=O)(=O)O)[C@H](O)[C@H](O)[C@H]1O)OC(=O)CCCCCCCCCCCCCCC (stereo partly drawn) [SFAG5, 3-O-(6-deoxy-6-sulfo-α-D-galactopyranosyl)-1,2-di-O-palmitoyl-glycerol sodium salt]	0.551	–	–
CCCCCCCCCCCCCC(=O)OCC(O)CO[C@H]1O[C@H](CS(=O)(=O)[O-])[C@H](O)[C@H](O)[C@H]1O.[Na+] (stereo partly drawn) [SFAG1, 3-O-(6-deoxy-6-sulfo-α-D-galactopyranosyl)-1-O-myristoyl-glycerol sodium salt]	7.63	44.3	44
CCCCCCCCCCCCCCCCCC(=O)OCC(O)CO[C@H]1O[C@H](CS(=O)(=O)[O-])[C@H](O)[C@H](O)[C@H]1O.[Na+] (stereo partly drawn) [SFAG3, 3-O-(6-deoxy-6-sulfo-α-D-galactopyranosyl)-1-O-stearoyl-glycerol sodium salt]	8.24	30.3	27.5
CCCCCCCCCCCCCCCC(=O)OCC(O)CO[C@H]1O[C@H](CS(=O)(=O)[O-])[C@H](O)[C@H](O)[C@H]1O.[Na+] (stereo partly drawn) [SFAG2, 3-O-(6-deoxy-6-sulfo-α-D-galactopyranosyl)-1-O-palmitoyl-glycerol sodium salt]	8.64	41.7	41.5
CCCCCCCCCCCCCC(=O)OCC(CO[C@H]1O[C@H](CS(=O)(=O)O)[C@H](O)[C@H](O)[C@H]1O)OC(=O)CCCCCCCCCCCCC (stereo partly drawn) [SFAG4, 3-O-(6-deoxy-6-sulfo-α-D-galactopyranosyl)-1,2-di-O-myristoyl-glycerol sodium salt]	0.657	–	–
CCCCCCCCCCCCCCCCCC(=O)OCC(CO[C@H]1O[C@H](CS(=O)(=O)O)[C@H](O)[C@H](O)[C@H]1O)OC(=O)CCCCCCCCCCCCCCCCC (stereo partly drawn) [SFAG6, 3-O-(6-deoxy-6-sulfo-α-D-galactopyranosyl)-1,2-di-O-stearoyl-glycerol sodium salt]	0.458	–	–
